In patent US6352958B1, “Cycloimido-substituted benzofused heterocyclic herbicides” (FMC Corporation, priority 1997, dated 2002):

Tests used:
Format in all cases: in vivo
[1] = tested on: soybean (Glycine max var. Winchester); experiment: Preemergence herbicidal activity, soybean; settings: Rate of Application 0.3 Kg/Ha, examined after 12-17 days
[2] = tested on: wheat (Triticum aestivum var. Lew); experiment: Preemergence herbicidal activity, wheat; settings: Rate of Application 0.3 Kg/Ha, examined after 12-17 days
[3] = tested on: field corn (Zea mays var. Pioneer 3732); experiment: Preemergence herbicidal activity, corn; settings: Rate of Application 0.3 Kg/Ha, examined after 12-17 days
[4] = tested on: velvetleaf (Abutilon theophrasti); experiment: Preemergence herbicidal activity, velvetleaf; settings: Rate of Application 0.3 Kg/Ha, examined after 12-17 days
[5] = tested on: morningglory (Ipomea lacunosa or Ipomea hederacea); experiment: Preemergence herbicidal activity, morningglory; settings: Rate of Application 0.3 Kg/Ha, examined after 12-17 days
[6] = tested on: common chickweed (Stellaria media); experiment: Preemergence herbicidal activity, chickweed; settings: Rate of Application 0.3 Kg/Ha, examined after 12-17 days
[7] = tested on: blackgrass (Aloepecurus myosuroides); experiment: Preemergence herbicidal activity, blackgrass; settings: Rate of Application 0.3 Kg/Ha, examined after 12-17 days
Method: The benzofused heterocyclic compounds of this invention were tested for pre- and postemergence herbicidal activity using a variety of crops and weeds. The test plants included soybean (Glycine max var. Winchester), field corn (Zea mays var. Pioneer 3732), wheat (Triticum aestivum var. Lew), morningglory (Ipomea lacunosa or Ipomea hederacea), velvetleaf (Abutilon theophrasti), green foxtail (Setaria viridis), Johnsongrass (Sorghum halepense), blackgrass (Aloepecurus myosuroides), common chickweed (Stellaria media), and common cocklebur (Xanthium strumarium L.).
For preemergence testing, two disposable fiber flats (8 cm×15 cm×25 cm) for each rate of application of each candidate herbicide were filled to an approximate depth of 6.5 cm with steam-sterilized sandy loam soil. The soil was leveled and impressed with a template to provide five evenly spaced furrows 13 cm long and 0.5 cm deep in each flat. Seeds of soybean, wheat, corn, green foxtail, and johnsongrass were planted in the furrows of the first flat, and seeds of velvetleaf, morningglory, common chickweed, cocklebur, and blackgrass were planted in the furrows of the second flat. The five-row template was employed to firmly press the seeds into place. A topping soil of equal portions of sand and sandy loam soil was placed uniformly on top of each flat to a depth of approximately 0.5 cm. Flats for postemergence testing were prepared in the same manner except that they were planted 9-14 days prior to the preemergence flats and were placed in a greenhouse and watered, thus allowing the seeds to germinate and the foliage to develop.
In both pre- and postemergence tests, a stock solution of the candidate herbicide was prepared by dissolving 0.27 g of the compound in 20 mL of water/acetone (50/50) containing 0.5% v/v sorbitan monolaurate. For an application rate of 3000 g/ha of herbicide a 10 mL portion of the stock solution was diluted with water/acetone (50/50) to 45 mL.
The preemergence flats were initially subjected to a light water spray. The four flats were placed two by two along a conveyor belt (i.e., the two preemergence followed by the two postemergence flats). The conveyor belt fed under a spray nozzle mounted about ten inches above the post-emergent foliage. The preemergent flats were elevated on the belt so that the soil surface was at the same level below the spray nozzle as the foliage canopy of the postemergent plants. The spray of herbicidal solution was commenced and once stabilized, the flats were passed under the spray at a speed to receive a coverage equivalent of 100 L/ha. At this coverage the application rates are those shown in the above table for the individual herbicidal solutions. The preemergence flats were watered immediately thereafter, placed in the greenhouse and watered regularly at the soil surface. The postemergence flats were immediately placed in the green-house and not watered until 24 hours after treatment with the test solution. Thereafter they were regularly watered at ground level. After 12-17 days the plants were examined and the phytotoxicity data were recorded.
Phytotoxicity data were taken as percent control. Percent control was determined by a method similar to the 0 to 100 rating system disclosed in “Research Methods in Weed Science,” 2nd ed., B. Truelove, Ed.; Southern Weed Science Society; Auburn University, Auburn, Ala., 1977.

[8] = tested on: green foxtail (Setaria viridis); experiment: Preemergence herbicidal activity, green foxtail; settings: Rate of Application 0.3 Kg/Ha, examined after 12-17 days
[9] = tested on: Johnsongrass (Sorghum halepense); experiment: Preemergence herbicidal activity, johnsongrass; settings: Rate of Application 0.3 Kg/Ha, examined after 12-17 days
[10] = tested on: soybean (Glycine max var. Winchester); experiment: Postemergence herbicidal activity, soybean; settings: rate of application 0.3 Kg/Ha, rated after 12-17 days
[11] = tested on: wheat (Triticum aestivum var. Lew); experiment: Postemergence herbicidal activity, wheat; settings: rate of application 0.3 Kg/Ha, rated after 12-17 days
[12] = tested on: field corn (Zea mays var. Pioneer 3732); experiment: Postemergence herbicidal activity, corn; settings: rate of application 0.3 Kg/Ha, rated after 12-17 days
[13] = tested on: velvetleaf (Abutilon theophrasti); experiment: Postemergence herbicidal activity, velvetleaf; settings: rate of application 0.3 Kg/Ha, rated after 12-17 days
[14] = tested on: morningglory (Ipomea lacunosa or Ipomea hederacea); experiment: Postemergence herbicidal activity, morningglory; settings: rate of application 0.3 Kg/Ha, rated after 12-17 days
[15] = tested on: common chickweed (Stellaria media); experiment: Postemergence herbicidal activity, chickweed; settings: rate of application 0.3 Kg/Ha, rated after 12-17 days
[16] = tested on: common cocklebur (Xanthium strumarium L.); experiment: Postemergence herbicidal activity, cocklebur; settings: rate of application 0.3 Kg/Ha, rated after 12-17 days
[17] = tested on: green foxtail (Setaria viridis); experiment: Postemergence herbicidal activity, green foxtail; settings: rate of application 0.3 Kg/Ha, rated after 12-17 days
[18] = tested on: Johnsongrass (Sorghum halepense); experiment: Postemergence herbicidal activity, johnsongrass; settings: rate of application 0.3 Kg/Ha, rated after 12-17 days
[19] = tested on: common cocklebur (Xanthium strumarium L.); experiment: Preemergence herbicidal activity, cocklebur; settings: Rate of Application 0.3 Kg/Ha, examined after 12-17 days

Compound | PREEMERGENCE HERBICIDAL ACTIVITY (% CONTROL) SOY [1] [%] | PREEMERGENCE HERBICIDAL ACTIVITY (% CONTROL) WHT [2] [%] | PREEMERGENCE HERBICIDAL ACTIVITY (% CONTROL) CRN [3] [%] | PREEMERGENCE HERBICIDAL ACTIVITY (% CONTROL) ABUTH [4] [%] | PREEMERGENCE HERBICIDAL ACTIVITY (% CONTROL) IPOSS [5] [%] | PREEMERGENCE HERBICIDAL ACTIVITY (% CONTROL) STEME [6] [%] | PREEMERGENCE HERBICIDAL ACTIVITY (% CONTROL) ALOMY [7] [%] | PREEMERGENCE HERBICIDAL ACTIVITY (% CONTROL) SETVI [8] [%] | PREEMERGENCE HERBICIDAL ACTIVITY (% CONTROL) SORHA [9] [%] | Postemergence herbicidal activity (% control) SOY [10] [%] | Postemergence herbicidal activity (% control) WHT [11] [%] | Postemergence herbicidal activity (% control) CRN [12] [%] | Postemergence herbicidal activity (% control) ABUTH [13] [%] | Postemergence herbicidal activity (% control) IPOSS [14] [%] | Postemergence herbicidal activity (% control) STEME [15] [%] | Postemergence herbicidal activity (% control) XANPE [16] [%] | Postemergence herbicidal activity (% control) SETVI [17] [%] | Postemergence herbicidal activity (% control) SORHA [18] [%] | PREEMERGENCE HERBICIDAL ACTIVITY (% CONTROL) XANPE [19] [%]
Cn1c(C(F)(F)F)cc(=O)n(-c2c(F)cc(Br)c3oc(COc4ccccc4)nc23)c1=O [Compound 99] | 40 | 50 | 60 | 100 | 100 | 100 | 60 | 100 | 65 | 80 | 40 | 80 | 100 | 100 | 95 | 70 | 70 | 65 | –
Cn1c(C(F)(F)F)cc(=O)n(-c2ccc(Cl)c3cc(C(N)=O)oc23)c1=O [Compound 269] | 60 | 30 | 80 | 100 | 100 | 100 | 70 | 100 | 75 | 90 | 40 | 70 | 100 | 80 | 80 | – | 70 | 60 | 100
CN(C)C(=O)c1cc2c(Cl)ccc(-n3c(=O)cc(C(F)(F)F)n(C)c3=O)c2o1 [Compound 271] | 80 | 70 | 90 | 100 | 100 | 100 | 80 | 100 | 90 | 80 | 40 | 60 | 100 | 100 | 100 | – | 70 | 50 | 100
CC(=O)Nc1nc2c(-n3c(=O)cc(C(F)(F)F)n(C)c3=O)c(F)cc(Br)c2o1 [Compound 43] | 50 | 40 | 80 | 100 | 100 | 10 | 60 | 70 | 80 | 80 | 30 | 70 | 100 | 100 | 70 | 50 | 50 | 50 | –
Cn1c(C(F)(F)F)cc(=O)n(-c2ccc(Cl)c3cc(CBr)oc23)c1=O [Compound 232] | 20 | 30 | 50 | 90 | 80 | 20 | – | 40 | 25 | 75 | 50 | 30 | 100 | 80 | 20 | 40 | 30 | 10 | 10
CC(=O)N(C(C)=O)c1nc2c(-n3c(=O)cc(C(F)(F)F)n(C)c3=O)c(F)cc(Br)c2o1 [Compound 100] | 40 | 30 | 80 | 100 | 100 | 20 | 60 | 50 | 70 | 85 | 40 | 60 | 90 | 100 | 50 | 50 | 30 | 40 | –
COCc1nc2c(-n3c(=O)cc(C(F)(F)F)n(C)c3=O)c(F)cc(Br)c2o1 [Compound 96] | 100 | 90 | 95 | 100 | 100 | 100 | 90 | 100 | 95 | 100 | 90 | 90 | 100 | 100 | 100 | 100 | 100 | 100 | –
